In brackets after ≈: the same amount, converted by molar mass.
Columns and labels:
MtDHFR = MtDHFR (Mycobacterium tuberculosis, UniProt P9WNX1); assay: biochemical; assay type: biochemical
E. coli ATCC 25922 = assay: Antibacterial activity, broth microdilution (E. coli); conditions: Escherichia coli, ATCC25922, read-out: E. coli ATCC 25922 (Gram –ve) MIC, broth microdilution
Protocol: (§1) All twenty-eight molecules were evaluated for in vitro antimicrobial activities that were assessed against Gram +ve and Gram -ve strains.
(§2) The antibacterial inhibitory effects of all compounds were assessed using the broth microdilution method, with ciprofloxacin serving as the reference medication.

[1] = target: InhA enzyme from M. tuberculosis (Mycobacterium tuberculosis, UniProt P9WGR1); assay: InhA inhibition assay; assay type: biochemical; conditions: read-out: % InhA Inhibition at 50 µM
M. tuberculosis H37Rv = assay: Antitubercular activity, Microplate Alamar Blue test (MABA); assay type: cell-based, Mycobacterium tuberculosis; conditions: n = 3; for MIC: Mycobacterium tuberculosis, H37RV
[2] = tested on: human lung cancer cell line A549; assay: MTT-based cytotoxicity; assay type: cell-based; conditions: Homo sapiens, A549; MTT assay
Protocol: The cytotoxic effects of seventeen selected molecules were assessed against the A549 human lung adenocarcinoma cell line using the MTT assay. Cisplatin served as the reference drug for comparison. Lower IC50 values indicate higher cytotoxicity.
The cytotoxic activity (IC50) of selected compounds against A549 (lung adenocarcinoma) MV cell-lines was evaluated by performing cellular conversion of MTT [3-(4,5-dimethylthiazo-2-yl)-2,5-diphenyl-tetrazolium bromide] into a formazan product. This evaluation was conducted up to a concentration of 50 mg/mL using the Promega Cell Titre 96 non-radioactive cell proliferation assay, with cisplatin serving as the positive control. Cytotoxicity is commonly quantified by determining the IC50 value, which represents the quantity of a substance that reduces the optical density of treated cells by 50% compared to untreated cells, as measured by the MTT experiment. The results are presented as IC50 values (mean ± standard error of the mean (SEM) obtained from three separate and independent measurements.

S. aureus ATCC 29213 = assay: Antibacterial activity, broth microdilution (S. aureus); conditions: Staphylococcus aureus, ATCC29213, read-out: S. aureus ATCC 29213 (Gram +ve) MIC
Protocol: as §1, §2

InhA enzyme from M. tuberculosis, sequence (P9WGR1 whole entry, looked up): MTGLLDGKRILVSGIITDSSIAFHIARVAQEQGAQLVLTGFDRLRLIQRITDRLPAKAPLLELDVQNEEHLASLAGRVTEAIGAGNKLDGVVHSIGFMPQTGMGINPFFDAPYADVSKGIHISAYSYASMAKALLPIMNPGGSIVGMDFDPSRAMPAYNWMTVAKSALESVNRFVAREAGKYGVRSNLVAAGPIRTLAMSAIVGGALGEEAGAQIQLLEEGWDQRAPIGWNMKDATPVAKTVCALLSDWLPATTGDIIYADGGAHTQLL
MtDHFR, sequence (P9WNX1 whole entry): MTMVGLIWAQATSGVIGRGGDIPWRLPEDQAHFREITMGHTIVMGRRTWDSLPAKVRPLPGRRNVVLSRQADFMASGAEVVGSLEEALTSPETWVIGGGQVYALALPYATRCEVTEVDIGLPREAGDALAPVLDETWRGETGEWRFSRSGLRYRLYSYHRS

SMILES	IC50 (MtDHFR) [µM]	MIC (E. coli ATCC 25922) [µg/mL]	inhibition at 50 µM [1] [%]	MIC (M. tuberculosis H37Rv) [µg/mL]	IC50 [2] [µg/mL]	MIC (S. aureus ATCC 29213) [µg/mL]	MtDHFR inhibition, in words, compared with trimethoprim (MtDHFR)	M. tuberculosis H37Rv MIC values (M. tuberculosis H37Rv) [µg/mL]
CC(=NNC(=O)COC(=O)c1ccc(-n2cccc2)cc1)c1cccc(Br)c1 [Compound 5f, 2-(2-(1-(3-bromophenyl)ethylidene)hydrazinyl)-2-oxoethyl 4-(1H-pyrrol-1-yl)benzoate]	153	1.6 (≈ 3.63 µM)	43	1.6 (≈ 3.63 µM)	275 ± 0.4 (≈ 625 µM)	3.12 (≈ 7.09 µM)	–	–
CC(=NNC(=O)COC(=O)c1ccc(-n2cccc2)cc1)c1cccc([N+](=O)[O-])c1 [Compound 5g, 2-(2-(1-(3-nitrophenyl)ethylidene)hydrazinyl)-2-oxoethyl 4-(1H-pyrrol-1-yl)benzoate]	132	1.6 (≈ 3.94 µM)	34	1.6 (≈ 3.94 µM)	249 ± 0.9 (≈ 613 µM)	6.25 (≈ 15.4 µM)	–	–
CC(=NNC(=O)COC(=O)c1ccc(-n2cccc2)cc1)c1ccc(O)cc1 [Compound 5j, 2-(2-(1-(4-hydroxyphenyl)ethylidene)hydrazinyl)-2-oxoethyl 4-(1H-pyrrol-1-yl)benzoate]	70	3.12 (≈ 8.27 µM)	32	1.6 (≈ 4.24 µM)	255 ± 0.3 (≈ 676 µM)	12.5 (≈ 33.1 µM)	moderate inhibition	–
CC(=NNC(=O)COC(=O)c1ccc(-n2cccc2)cc1)c1cccc(Cl)c1 [Compound 5k, 2-(2-(1-(3-chlorophenyl)ethylidene)hydrazinyl)-2-oxoethyl 4-(1H-pyrrol-1-yl)benzoate]	69	3.12 (≈ 7.88 µM)	32	1.6 (≈ 4.04 µM)	229 ± 0.4 (≈ 579 µM)	12.5 (≈ 31.6 µM)	moderate inhibition	–
CC(=NNC(=O)COC(=O)c1ccc(-n2cccc2)cc1)c1ccc(F)cc1 [Compound 5l, 2-(2-(1-(4-fluorophenyl)ethylidene)hydrazinyl)-2-oxoethyl 4-(1H-pyrrol-1-yl)benzoate]	65	3.12 (≈ 8.22 µM)	46	1.6 (≈ 4.22 µM)	241 ± 0.6 (≈ 635 µM)	12.5 (≈ 32.9 µM)	moderate inhibition	–
O=C(COC(=O)c1ccc(-n2cccc2)cc1)NN=Cc1ccccc1 [Compound 6a, 2-(2-benzylidenehydrazinyl)-2-oxoethyl 4-(1H-pyrrol-1-yl)benzoate]	132	1.6 (≈ 4.61 µM)	13	1.6 (≈ 4.61 µM)	244 ± 0.8 (≈ 702 µM)	12.5 (≈ 36 µM)	–	–
O=C(COC(=O)c1ccc(-n2cccc2)cc1)NN=Cc1ccc([N+](=O)[O-])cc1 [Compound 6c, 2-(2-(4-nitrobenzylidene)hydrazinyl)-2-oxoethyl 4-(1H-pyrrol-1-yl)benzoate]	133	1.6 (≈ 4.08 µM)	9	1.6 (≈ 4.08 µM)	296 ± 0.3 (≈ 754 µM)	6.25 (≈ 15.9 µM)	–	–
O=C(COC(=O)c1ccc(-n2cccc2)cc1)NN=Cc1ccc(Cl)cc1 [Compound 6d, 2-(2-(4-chlorobenzylidene)hydrazinyl)-2-oxoethyl 4-(1H-pyrrol-1-yl)benzoate]	62	1.6 (≈ 4.19 µM)	18	0.8 (≈ 2.1 µM)	262 ± 0.7 (≈ 686 µM)	3.12 (≈ 8.17 µM)	moderate inhibition	0.8
